Tests used:
[1] = system: SERCA2b; fibroblast cells from TMTC4 KO and wild type mice; assay: UPR stress pathway gene mRNA in fibroblasts treated with thapsigargin; type: cell-based, mouse; conditions: TMTC4 KO compared to wild type cells
Experimental: Fibroblast cells were generated from TMTC4 KO mice and wild type mice. One group of cells was treated with the SERCA2b inhibitor thapsigargin. The expression of UPR stress pathway genes spliced X-box binding protein 1 (S-XBP1), the molecular chaperone BiP, and the pro-apoptotic protein CHOP were measured by mRNA quantification. The expression of the UPR stress response markers was low and was about equal in untreated wild type and TMTC4 KO cells.

[2] = system: SERCA2b; cochlear explants from TMTC4 KO and wild type mice; assay: UPR stress pathway and Caspase 3 mRNA in cochlear explants treated with thapsigargin; type: cell-based, mouse; conditions: thapsigargin treated cochlear explants from TMTC4 KO and wild type mice (FIG. 2)
Experimental: FIG. 2. SYBR Green measurement of qPCR product measuring RNA expression of spliced X-box binding protein 1 (S-XBP1), the molecular chaperone BiP, the pro-apoptotic protein CHOP, and Caspase 3 in cochlear explants from mice. WT=wild type and KO=TMTC4 knockout mice. +TG indicates explants treated with the SERCA2b inhibitor thapsigargin. In another experiment, cochlear explants from TMTC4 KO and wild type mice were extracted. One group of explants was treated with the SERCA2b inhibitor thapsigargin. The expression of UPR stress pathway genes S-XBP1 BiP, CHOP, and the apoptotic gene Caspase 3 were measured by mRNA quantification (FIG. 2). In the untreated explants, the expression of the UPR stress response markers and of Caspase3 were about equal.

[3] = system: wild type fibroblasts (ER Ca2+); assay: Ca2+ quantification in intracellular compartments of fibroblasts by Mag-FURA-2 imaging; type: cell-based, mouse; conditions: ten minutes with 1 micromolar ATP and 1 micromolar thapsigargin
Experimental: In one experiment, quantification of Ca2^+ was performed in intracellular compartments of fibroblasts by Mag-FURA-2 imaging. In wild type fibroblasts, an area of high Ca2^+ concentration in the perinuclear region corresponding to the ER was observed. […] Quantification of the Ca2^+ gradient between ER and cytosol compartments in fibroblasts was also measured in both wild type and TMTC4 KO mice.

[4] = system: UPR induction (CHOP and ATF4 mRNA) in HEK293T cells; assay: UPR induction by thapsigargin in HEK293T cells, CHOP and ATF4 mRNA by qPCR; type: cell-based; conditions: HEK293T cells pretreated with ISRIB vs control formulation, then 1 micromolar thapsigargin
Experimental: In another experiment, HEK293T cells were pretreated with a control formulation or ISRIB, […], then exposed […] to 1 micromolar thapsigargin for 2 hours. CHOP and ATF4 mRNA levels were then assessed by qPCR.

[5] = system: wild type mice exposed to damaging noise; assay: Noise-induced hearing loss in wild type mice, ABR threshold; type: in vivo, mouse; conditions: 2.5 mg/kg intraperitoneal 4 hours before damaging noise, treated vs untreated (FIG. 9, N=3)
Experimental: FIG. 9 depicts ABR threshold to click, 8 kHz, and 16 kHz stimuli in mice treated with ISRIB (dotted line, N=3)) compared with vehicle (solid line, N=3). All values are means with error bars indicating the standard error of the mean.
Wild type mice were subjected to the same treatment and cochleae were subsequently removed and apoptotic ER response gene expression was assessed.
ISRIB was delivered […] via intraperitoneal injection 4 hours before exposure to damaging noise, at 2.5 mg/kg.

| Compound | expression of UPR stress response markers (S-XBP1, BiP, CHOP) mRNA [1] | expression of UPR stress response markers (S-XBP1, BiP, CHOP) and Caspase 3 mRNA [2] | Ca2+ concentration of perinuclear region (ER) [3] | ATF4 mRNA expression [4] | CHOP mRNA expression [4] | ABR threshold to clicks at 8 kHz and 16 kHz [5] |
| --- | --- | --- | --- | --- | --- | --- |
| C/C=C(/C)C(=O)O[C@H]1C(C)=C2[C@H]([C@@H]1OC(=O)CCCCCCC)[C@@](C)(OC(C)=O)C[C@H](OC(=O)CCC)[C@@]1(O)[C@H]2OC(=O)[C@@]1(C)O [thapsigargin] | substantially elevated in the TMTC4 KO cells compared to wild type cells | substantially elevated | reduced to that observed in the surrounding cytosol |  |  |  |
| O=C(COc1ccc(Cl)cc1)N[C@H]1CC[C@H](NC(=O)COc2ccc(Cl)cc2)CC1 [ISRIB, trans-N,N′-(cyclohexane-1,4-diyl)bis(2-(4-chlorophenoxy)acetamide)] |  |  |  | significant and substantial reduction | significant and substantial reduction | lower in treated mice than in untreated mice |

From patent US11957655B2, “Methods of treating hearing loss” (The Regents of the University of California, priority 2015, dated 2024)
